Source: US10092534B2, “Composition for treating headaches” (BIOHIT OYJ, priority 2012, dated 2018)

Assays:
acetaldehyde from saliva = assay: Elimination of acetaldehyde from saliva during smoking by a cysteine lozenge (FIG. 3); assay type: in vivo, human; settings: lozenge containing 5 mg
[1] = test system: acetaldehyde in the saliva; assay: Salivary acetaldehyde during smoking while sucking L-cysteine tablets (gas chromatography of saliva samples); assay type: in vivo, human; settings: for average salivary acetaldehyde contents immediately after smoking: five smokers, one cigarette in 5 minutes, placebo 191.2±48.5 μM
Experimental: Five smokers (of the age of 29±2.8) participated in a study, in which […] were smoked (with cleaning periods in between). While smoking each cigarette (in 5 minutes time), the voluntaries sucked tablets blindfold, containing a placebo, 1.25 mg, 2.5 mg, 5 mg, 10 mg or 20 mg of L-cysteine. The acetaldehyde in the saliva samples was analysed by gas chromatography after 0, 5, 10, 20 minutes from starting to smoke.

For `N[C@H](CS)C(=O)O` [D-cysteine], the “elimination of acetaldehyde from saliva during smoking” value (acetaldehyde from saliva) was “totally eliminates acetaldehyde”.
In the case of `N[C@@H](CS)C(=O)O` [L-cysteine], the “average salivary acetaldehyde contents immediately after smoking” value ([1]; 5 mg L-cysteine sucking tablet) is reported as 0 µM, the “inactivation of acetaldehyde in the saliva during smoking” value ([1]; 5 mg of L-cysteine delivered with a melting tablet) is reported as “completely inactivated” and the “average salivary acetaldehyde contents immediately after smoking” value ([1]; 10 mg L-cysteine sucking tablet) is reported as 0 µM. The “average salivary acetaldehyde contents immediately after smoking” value ([1]; 20 mg L-cysteine sucking tablet) was 0 µM, the “reduction of the amount of acetaldehyde compared with the placebo” value ([1]; L-cysteine tablet of 1.25 mg, saliva, during smoking) was “about two thirds” and the “removal of acetaldehyde originating from tobacco from the saliva” value ([1]; L-cysteine tablets 5 mg, 10 and 20 mg, during smoking, FIG. 1) was “removed from the saliva all of the acetaldehyde”. For the same compound, the “elimination of acetaldehyde from saliva during smoking” value (acetaldehyde from saliva) was “totally eliminates acetaldehyde”.
